Results: US9529005B2, “Modulating bacterial MAM polypeptides in pathogenic disease” (priority 2011, dated 2016)
In brackets after ≈: the same amount, converted by molar mass. Where two headings read alike, the source gives them in different places.

Experiments:
Experiment in all cases: Antimicrobial susceptibility testing (MIC), BD Phoenix Automated Microbiology System; as to interpretation of the result: key: R, resistant; I, intermediate; S, susceptible; R*: *As a rule, when ESBL is detected, an interpretation of susceptible or intermediate for penicillins, cephalosporins and aztreonam is reported as resistant
Format in all cases: cell-based
Acinetobacter baumannii = details: for MIC: Acinetobacter baumannii
Escherichia coli = details: for MIC: Escherichia coli
Klebsiella ssp. = details: for MIC: Klebsiella
Pseudomonas aeruginosa = details: for MIC: Pseudomonas aeruginosa
[1] = Acinetobacter baumannii isolate 1
[2] = Acinetobacter baumannii isolate 2
[3] = Acinetobacter baumannii isolate 3
[4] = Acinetobacter baumannii isolate 4
[5] = Acinetobacter baumannii isolate 5
[6] = read-out: minimal inhibiting concentration, Acinetobacter baumannii isolate 1
[7] = read-out: minimal inhibiting concentration, Acinetobacter baumannii isolate 2
[8] = read-out: minimal inhibiting concentration, Acinetobacter baumannii isolate 3
[9] = read-out: minimal inhibiting concentration, Acinetobacter baumannii isolate 4
[10] = read-out: minimal inhibiting concentration, Acinetobacter baumannii isolate 5
[11] = read-out: minimal inhibiting concentration, Escherichia coli isolate 1
[12] = read-out: minimal inhibiting concentration, Escherichia coli isolate 2
[13] = read-out: minimal inhibiting concentration, Escherichia coli isolate 3
[14] = read-out: minimal inhibiting concentration, Escherichia coli isolate 4
[15] = read-out: minimal inhibiting concentration, Escherichia coli isolate 5
[16] = read-out: minimal inhibiting concentration, Klebsiella ssp. isolate 1
[17] = read-out: minimal inhibiting concentration, Klebsiella ssp. isolate 2
[18] = read-out: minimal inhibiting concentration, Klebsiella ssp. isolate 3
[19] = read-out: minimal inhibiting concentration, Klebsiella ssp. isolate 4
[20] = read-out: minimal inhibiting concentration, Klebsiella ssp. isolate 5
[21] = Pseudomonas aeruginosa isolate 1
[22] = Pseudomonas aeruginosa isolate 2
[23] = Pseudomonas aeruginosa isolate 3
[24] = Pseudomonas aeruginosa isolate 4
[25] = Pseudomonas aeruginosa isolate 5
[26] = read-out: minimal inhibiting concentration, Pseudomonas aeruginosa isolate 1
[27] = read-out: minimal inhibiting concentration, Pseudomonas aeruginosa isolate 2
[28] = read-out: minimal inhibiting concentration, Pseudomonas aeruginosa isolate 3
[29] = read-out: minimal inhibiting concentration, Pseudomonas aeruginosa isolate 4
[30] = read-out: minimal inhibiting concentration, Pseudomonas aeruginosa isolate 5

C[C@@H](O)[C@H]1C(=O)N2C(C(=O)O)=C(SCCN=CN)C[C@H]12 [Im., Imipenem]
interpretation of the result (Acinetobacter baumannii; [1]): S | interpretation of the result (Acinetobacter baumannii; [2]): R | interpretation of the result (Acinetobacter baumannii; [3]): R | interpretation of the result (Acinetobacter baumannii; [4]): S | interpretation of the result (Acinetobacter baumannii; [5]): R | MIC (Acinetobacter baumannii; [6]): 2 µg/mL (≈ 6.68 µM) | MIC (Acinetobacter baumannii; [7]): > 8 µg/mL | MIC (Acinetobacter baumannii; [8]): > 8 µg/mL | MIC (Acinetobacter baumannii; [9]): 2 µg/mL (≈ 6.68 µM) | MIC (Acinetobacter baumannii; [10]): > 8 µg/mL | interpretation of the result (Escherichia coli; Escherichia coli isolate 1): S | interpretation of the result (Escherichia coli; Escherichia coli isolate 2): S | interpretation of the result (Escherichia coli; Escherichia coli isolate 3): S | interpretation of the result (Escherichia coli; Escherichia coli isolate 4): S | interpretation of the result (Escherichia coli; Escherichia coli isolate 5): S | MIC (Escherichia coli; [11]): ≤ 1 µg/mL | MIC (Escherichia coli; [12]): ≤ 1 µg/mL | MIC (Escherichia coli; [13]): ≤ 1 µg/mL | MIC (Escherichia coli; [14]): ≤ 1 µg/mL | MIC (Escherichia coli; [15]): ≤ 1 µg/mL | interpretation of the result (Klebsiella ssp.; Klebsiella ssp. isolate 1): S | interpretation of the result (Klebsiella ssp.; Klebsiella ssp. isolate 2): S | interpretation of the result (Klebsiella ssp.; Klebsiella ssp. isolate 3): S | interpretation of the result (Klebsiella ssp.; Klebsiella ssp. isolate 4): S | interpretation of the result (Klebsiella ssp.; Klebsiella ssp. isolate 5): S | MIC (Klebsiella ssp.; [16]): ≤ 1 µg/mL | MIC (Klebsiella ssp.; [17]): ≤ 1 µg/mL | MIC (Klebsiella ssp.; [18]): ≤ 1 µg/mL | MIC (Klebsiella ssp.; [19]): ≤ 1 µg/mL | MIC (Klebsiella ssp.; [20]): ≤ 1 µg/mL | interpretation of the result (Pseudomonas aeruginosa; [21]): R | interpretation of the result (Pseudomonas aeruginosa; [22]): R | interpretation of the result (Pseudomonas aeruginosa; [23]): R | interpretation of the result (Pseudomonas aeruginosa; [24]): R | interpretation of the result (Pseudomonas aeruginosa; [25]): S | MIC (Pseudomonas aeruginosa; [26]): > 8 µg/mL | MIC (Pseudomonas aeruginosa; [27]): > 8 µg/mL | MIC (Pseudomonas aeruginosa; [28]): > 8 µg/mL | MIC (Pseudomonas aeruginosa; [29]): > 8 µg/mL | MIC (Pseudomonas aeruginosa; [30]): 2 µg/mL (≈ 6.68 µM)

C[C@H]1COc2c(N3CCN(C)CC3)c(F)cc3c(=O)c(C(=O)O)cn1c23 [Lev., Levofloxacin]
interpretation of the result (Acinetobacter baumannii; [1]): R | interpretation of the result (Acinetobacter baumannii; [2]): R | interpretation of the result (Acinetobacter baumannii; [3]): I | interpretation of the result (Acinetobacter baumannii; [4]): R | interpretation of the result (Acinetobacter baumannii; [5]): R | MIC (Acinetobacter baumannii; [6]): > 4 µg/mL | MIC (Acinetobacter baumannii; [7]): > 4 µg/mL | MIC (Acinetobacter baumannii; [8]): 4 µg/mL (≈ 11.1 µM) | MIC (Acinetobacter baumannii; [9]): > 4 µg/mL | MIC (Acinetobacter baumannii; [10]): > 4 µg/mL | interpretation of the result (Escherichia coli; Escherichia coli isolate 1): R | interpretation of the result (Escherichia coli; Escherichia coli isolate 2): R | interpretation of the result (Escherichia coli; Escherichia coli isolate 3): R | interpretation of the result (Escherichia coli; Escherichia coli isolate 4): R | interpretation of the result (Escherichia coli; Escherichia coli isolate 5): R | MIC (Escherichia coli; [11]): > 4 µg/mL | MIC (Escherichia coli; [12]): > 4 µg/mL | MIC (Escherichia coli; [13]): > 4 µg/mL | MIC (Escherichia coli; [14]): > 4 µg/mL | MIC (Escherichia coli; [15]): > 4 µg/mL | interpretation of the result (Klebsiella ssp.; Klebsiella ssp. isolate 1): R | interpretation of the result (Klebsiella ssp.; Klebsiella ssp. isolate 2): S | interpretation of the result (Klebsiella ssp.; Klebsiella ssp. isolate 3): S | interpretation of the result (Klebsiella ssp.; Klebsiella ssp. isolate 4): S | interpretation of the result (Klebsiella ssp.; Klebsiella ssp. isolate 5): S | MIC (Klebsiella ssp.; [16]): > 4 µg/mL | MIC (Klebsiella ssp.; [17]): ≤ 1 µg/mL | MIC (Klebsiella ssp.; [18]): ≤ 1 µg/mL | MIC (Klebsiella ssp.; [19]): ≤ 1 µg/mL | MIC (Klebsiella ssp.; [20]): ≤ 1 µg/mL | interpretation of the result (Pseudomonas aeruginosa; [21]): R | interpretation of the result (Pseudomonas aeruginosa; [22]): R | interpretation of the result (Pseudomonas aeruginosa; [23]): R | interpretation of the result (Pseudomonas aeruginosa; [24]): R | interpretation of the result (Pseudomonas aeruginosa; [25]): R | MIC (Pseudomonas aeruginosa; [26]): > 4 µg/mL | MIC (Pseudomonas aeruginosa; [27]): > 4 µg/mL | MIC (Pseudomonas aeruginosa; [28]): > 4 µg/mL | MIC (Pseudomonas aeruginosa; [29]): > 4 µg/mL | MIC (Pseudomonas aeruginosa; [30]): > 4 µg/mL

C[C@@H](O)[C@H]1C(=O)N2C(C(=O)O)=C(S[C@@H]3CN[C@H](C(=O)N(C)C)C3)[C@H](C)[C@H]12 [Mero., Meropenem]
interpretation of the result (Acinetobacter baumannii; [1]): S | interpretation of the result (Acinetobacter baumannii; [2]): R | interpretation of the result (Acinetobacter baumannii; [3]): R | interpretation of the result (Acinetobacter baumannii; [4]): S | interpretation of the result (Acinetobacter baumannii; [5]): R | MIC (Acinetobacter baumannii; [6]): 2 µg/mL (≈ 5.22 µM) | MIC (Acinetobacter baumannii; [7]): > 8 µg/mL | MIC (Acinetobacter baumannii; [8]): > 8 µg/mL | MIC (Acinetobacter baumannii; [9]): ≤ 1 µg/mL | MIC (Acinetobacter baumannii; [10]): > 8 µg/mL | interpretation of the result (Escherichia coli; Escherichia coli isolate 1): S | interpretation of the result (Escherichia coli; Escherichia coli isolate 2): S | interpretation of the result (Escherichia coli; Escherichia coli isolate 3): S | interpretation of the result (Escherichia coli; Escherichia coli isolate 4): S | interpretation of the result (Escherichia coli; Escherichia coli isolate 5): S | MIC (Escherichia coli; [11]): ≤ 1 µg/mL | MIC (Escherichia coli; [12]): ≤ 1 µg/mL | MIC (Escherichia coli; [13]): ≤ 1 µg/mL | MIC (Escherichia coli; [14]): ≤ 1 µg/mL | MIC (Escherichia coli; [15]): ≤ 1 µg/mL | susceptibility of isolates (Escherichia coli; all E. coli isolates): susceptible | interpretation of the result (Klebsiella ssp.; Klebsiella ssp. isolate 1): S | interpretation of the result (Klebsiella ssp.; Klebsiella ssp. isolate 2): S | interpretation of the result (Klebsiella ssp.; Klebsiella ssp. isolate 3): S | interpretation of the result (Klebsiella ssp.; Klebsiella ssp. isolate 4): S | interpretation of the result (Klebsiella ssp.; Klebsiella ssp. isolate 5): S | MIC (Klebsiella ssp.; [16]): ≤ 1 µg/mL | MIC (Klebsiella ssp.; [17]): ≤ 1 µg/mL | MIC (Klebsiella ssp.; [18]): ≤ 1 µg/mL | MIC (Klebsiella ssp.; [19]): ≤ 1 µg/mL | MIC (Klebsiella ssp.; [20]): ≤ 1 µg/mL | susceptibility of isolates (Klebsiella ssp.; all Klebsiella ssp. isolates): susceptible | interpretation of the result (Pseudomonas aeruginosa; [21]): S | interpretation of the result (Pseudomonas aeruginosa; [22]): R | interpretation of the result (Pseudomonas aeruginosa; [23]): R | interpretation of the result (Pseudomonas aeruginosa; [24]): R | interpretation of the result (Pseudomonas aeruginosa; [25]): S | MIC (Pseudomonas aeruginosa; [26]): 4 µg/mL (≈ 10.4 µM) | MIC (Pseudomonas aeruginosa; [27]): > 8 µg/mL | MIC (Pseudomonas aeruginosa; [28]): > 8 µg/mL | MIC (Pseudomonas aeruginosa; [29]): > 8 µg/mL | MIC (Pseudomonas aeruginosa; [30]): 4 µg/mL (≈ 10.4 µM)
